Data from ChEMBL document CHEMBL4270497, “Recent advances (2015-2016) in anticancer hybrids” (Eur J Med Chem, 2017).
Values after ≈ are worked out from the molar mass of the structure shown.

Columns and labels:
[1] = test system: A549; test: Cytotoxicity in human A549 cells assessed a reduction in cell viability incubated for 48 hrs by MTT assay; assay type: functional, cell-based; conditions: A549, 48 h
[2] = test system: HT-29; test: Cytotoxicity in human HT-29 cells assessed as reduction in cell viability incubated for 48 hrs by MTT assay; assay type: functional, cell-based; conditions: HT-29, 48 h
[3] = test system: PC-3; test: Cytotoxicity in human PC3 cells assessed as reduction in cell viability incubated for 48 hrs by MTT assay; assay type: functional, cell-based; conditions: PC-3, 48 h
[4] = test system: A549; test: Cytotoxicity in human A549 cells assessed as reduction in cell viability incubated for 48 hrs by MTT assay; assay type: functional, cell-based; conditions: A549, 48 h
[5] = test system: U-87 MG; test: Cytotoxicity in human U87MG cells assessed as reduction in cell viability incubated for 48 hrs by MTT assay; assay type: functional, cell-based, U-87MG ATCC
[6] = target: Vascular endothelial growth factor receptor 1 (Homo sapiens, UniProt P17948); test: Inhibition of VEGFR1 (unknown origin) using KKKSPGEYVNIEFG substrate and [33P-g-ATP] incubated for 30 mins
Sequence of Vascular endothelial growth factor receptor 1 (P17948 whole entry): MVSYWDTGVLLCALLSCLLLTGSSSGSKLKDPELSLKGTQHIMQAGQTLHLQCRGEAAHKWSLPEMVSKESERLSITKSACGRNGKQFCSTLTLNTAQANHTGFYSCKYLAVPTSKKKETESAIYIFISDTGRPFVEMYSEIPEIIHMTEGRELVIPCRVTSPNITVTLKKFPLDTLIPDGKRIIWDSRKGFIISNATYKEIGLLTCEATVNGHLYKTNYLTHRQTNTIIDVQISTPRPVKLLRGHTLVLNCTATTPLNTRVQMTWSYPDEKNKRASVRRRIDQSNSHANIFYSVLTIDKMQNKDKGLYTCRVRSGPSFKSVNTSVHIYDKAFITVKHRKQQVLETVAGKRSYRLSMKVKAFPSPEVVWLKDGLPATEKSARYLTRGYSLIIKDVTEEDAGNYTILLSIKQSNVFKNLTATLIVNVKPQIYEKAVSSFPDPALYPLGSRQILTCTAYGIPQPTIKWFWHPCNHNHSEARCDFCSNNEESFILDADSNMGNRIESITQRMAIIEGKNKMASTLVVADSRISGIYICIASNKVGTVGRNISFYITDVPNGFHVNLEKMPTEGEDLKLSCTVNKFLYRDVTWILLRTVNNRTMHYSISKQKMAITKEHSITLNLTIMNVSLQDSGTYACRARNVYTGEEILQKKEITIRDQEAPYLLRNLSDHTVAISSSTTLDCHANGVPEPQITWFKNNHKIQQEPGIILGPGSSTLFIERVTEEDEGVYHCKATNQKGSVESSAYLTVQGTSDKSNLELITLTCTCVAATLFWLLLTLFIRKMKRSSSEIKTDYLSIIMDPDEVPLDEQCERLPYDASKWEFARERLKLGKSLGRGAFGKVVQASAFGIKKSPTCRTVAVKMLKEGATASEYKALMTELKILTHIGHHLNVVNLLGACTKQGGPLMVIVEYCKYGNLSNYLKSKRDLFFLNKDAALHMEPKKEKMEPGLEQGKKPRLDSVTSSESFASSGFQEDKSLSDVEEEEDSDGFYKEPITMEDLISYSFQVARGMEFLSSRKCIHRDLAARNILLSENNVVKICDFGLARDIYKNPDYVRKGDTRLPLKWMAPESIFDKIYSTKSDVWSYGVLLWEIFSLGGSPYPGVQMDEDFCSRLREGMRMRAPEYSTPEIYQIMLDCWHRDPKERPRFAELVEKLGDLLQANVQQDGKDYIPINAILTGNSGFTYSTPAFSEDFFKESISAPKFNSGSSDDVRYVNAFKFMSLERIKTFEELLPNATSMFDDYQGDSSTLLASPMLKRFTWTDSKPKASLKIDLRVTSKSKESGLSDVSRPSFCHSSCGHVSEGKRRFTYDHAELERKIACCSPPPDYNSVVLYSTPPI

[7] = test system: HUVEC; test: Inhibition of VEGF-induced cell migration of HUVEC assessed as wound closure level at cytotoxic IC50 incubated for 24 hrs (reference value: 100%); assay type: functional, Homo sapiens; set-up: scale not given: the % may be the effect or the level left
[8] = test system: MCF7; test: Anticancer activity against human MCF7 cells assessed as reduction in cell viability incubated for 48 hrs by MTT assay; assay type: functional, cell-based; conditions: MCF7, 48 h
[9] = test system: HL-60; test: Anticancer activity against human HL60 cells assessed as reduction in cell viability incubated for 48 hrs by MTT assay; assay type: functional, cell-based; conditions: HL-60, 48 h
[10] = test system: LS180; test: Inhibition of P-gp in human LS180 cells assessed as reduction in doxorubicin cytotoxic IC50 level at 50 uM by MTT assay; assay type: functional
[11] = test system: HeLa; test: Antiproliferative activity against human HeLa cells incubated for 48 hrs by MTT assay; assay type: functional, cell-based
[12] = test system: MCF7; test: Antiproliferative activity against human MCF7 cells incubated for 48 hrs by MTT assay; assay type: functional, cell-based; conditions: MCF7, 48 h
[13] = test system: A549; test: Antiproliferative activity against human A549 cells incubated for 48 hrs by MTT assay; assay type: functional, cell-based; conditions: A549, 48 h
[14] = test system: HCT-116; test: Antiproliferative activity against human HCT116 cells incubated for 48 hrs by MTT assay; assay type: functional, cell-based; conditions: HCT-116, 48 h
[15] = test system: HT-29; test: Antiproliferative activity against human HT-29 cells incubated for 48 hrs by MTT assay; assay type: functional, cell-based; conditions: HT-29, 48 h
[16] = test system: DU-145; test: Antiproliferative activity against human DU145 cells incubated for 48 hrs by MTT assay; assay type: functional, cell-based; conditions: DU-145, 48 h
[17] = test system: HEK293; test: Antiproliferative activity against HEK293 cells incubated for 48 hrs by MTT assay; assay type: cell-based; conditions: Homo sapiens, HEK293, 48 h
[18] = target: Tyrosinase (Agaricus bisporus, UniProt O42713); test: Inhibition of diphenolase activity of mushroom tyrosinase pre-incubated for 30 mins before L-DOPA substrate addition and measured after 1 min by spectrophotometric assay
Sequence of Tyrosinase (O42713 whole entry): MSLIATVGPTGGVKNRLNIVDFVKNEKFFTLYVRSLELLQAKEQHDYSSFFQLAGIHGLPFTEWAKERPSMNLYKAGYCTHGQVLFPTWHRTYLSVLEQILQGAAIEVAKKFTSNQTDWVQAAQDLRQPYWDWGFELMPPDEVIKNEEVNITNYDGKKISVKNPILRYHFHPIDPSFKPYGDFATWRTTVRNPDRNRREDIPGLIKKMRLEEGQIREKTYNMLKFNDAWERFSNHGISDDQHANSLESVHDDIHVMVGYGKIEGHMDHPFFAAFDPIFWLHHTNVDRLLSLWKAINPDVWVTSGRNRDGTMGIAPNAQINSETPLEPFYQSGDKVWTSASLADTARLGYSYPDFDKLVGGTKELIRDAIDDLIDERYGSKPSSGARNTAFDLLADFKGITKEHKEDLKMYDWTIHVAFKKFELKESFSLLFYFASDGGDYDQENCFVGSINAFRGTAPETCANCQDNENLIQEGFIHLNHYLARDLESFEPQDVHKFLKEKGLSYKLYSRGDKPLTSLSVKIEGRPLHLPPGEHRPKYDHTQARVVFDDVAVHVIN

[19] = test system: Panel NCI-60 (60 carcinoma cell lines); test: Growth inhibition of human NCI60 cells incubated for 48 hrs by SRB assay; assay type: functional
[20] = test system: A498; test: Growth inhibition of human A498 cells at 10 uM; assay type: functional; conditions: read-out: GI
[21] = test system: MDA-MB-231; test: Growth inhibition of human MDA-MB-231 cells at 10 uM; assay type: functional; conditions: read-out: GI
[22] = test system: KB; test: Cytotoxicity in human KB cells assessed as reduction in cell viability; assay type: functional, cell-based

COc1cc(-c2nc(/C=C/C(=O)c3ccc(F)cc3)cc3c2[nH]c2ccccc23)ccc1F
IC50 [1]: < 10 µM

COc1ccc(Cn2cc(C(=O)c3cn(-c4ccccc4)nc3-c3ccc(F)cc3)nn2)cc1OC
IC50 [2]: 2.54 µM | IC50 [3]: 5.87 µM | IC50 [4]: 2.13 µM | IC50 [5]: 3.76 µM

O=C(Nc1ccc(F)cc1)c1sccc1Nc1cccc2c1OCCO2
IC50 [6]: 1.9 µM | Activity [7]: 20%

O=C(c1ccccc1)c1ccc2[nH]c(-c3c4ccccc4cc4ccccc34)nc2c1
IC50 [8]: 16.2 µM | IC50 [9]: 15.2 µM

COc1ccc(-c2nn(-c3ccccc3)cc2C(=O)c2cn(Cc3ccc(OC)c(OC)c3)nn2)cc1
IC50 [2]: 1.78 µM | IC50 [3]: 3.52 µM | IC50 [4]: 2.24 µM | IC50 [5]: 0.97 µM

O=C(Nc1ccc(F)cc1)c1sccc1Nc1cccc2c1OCO2
IC50 [6]: 2.5 µM | Activity [7]: 20% | Ratio IC50 [10]: 14

O=C(/C=C/c1cc2c([nH]c3ccccc32)c(-c2ccc(F)cc2)n1)c1ccc([N+](=O)[O-])cc1
IC50 [1]: < 10 µM

COc1ccc(Nc2ncccc2C(=O)/C=C/Nc2ccc3[nH]ccc3c2)cc1
IC50 [11]: 0.51 to 1.29 µM | IC50 [12]: 0.51 to 1.29 µM | IC50 [13]: 0.51 to 1.29 µM | IC50 [14]: 0.51 to 1.29 µM

COc1ccc(-c2nc(/C=C/C(=O)c3cc(OC)c(OC)c(OC)c3)cc3c2[nH]c2ccccc23)cc1OC
IC50 [1]: < 10 µM

COc1cc(-c2nc(/C=C/C(=O)c3ccc(N)cc3)cc3c2[nH]c2ccccc23)ccc1F
IC50 [1]: < 10 µM

COc1ccc(Cn2cc(C(=O)c3cccnc3Nc3ccc(F)cc3)nn2)cc1OC
IC50 [15]: 3.7 µM | IC50 [16]: 3.1 µM | IC50 [13]: 4.1 µM | IC50 [17]: 64.3 µM

CN(C)c1ccc(C2CC(c3cc4ccccc4o3)=NN2C(=O)Nc2ccc(Cl)cc2)c2ccccc12 (configuration not stated)
IC50 [18]: 4.72 µM

COc1ccc(-c2nc(/C=C/C(=O)c3ccc(F)cc3)cc3c2[nH]c2ccccc23)cc1OC
IC50 [1]: < 10 µM

CC(=O)N1N=C(c2ccc[nH]2)CC1c1cn(-c2ccccc2)nc1-c1cc2ccccc2o1 (configuration not stated)
GI50 [19]: 1 to 2.71 µM

COc1cc(-c2nc(/C=C/C(=O)c3ccc(F)cc3)cc3c2[nH]c2ccccc23)cc(OC)c1OC
IC50 [1]: < 10 µM

COc1cc(Cn2cc(C(=O)c3cccnc3Nc3ccc(F)cc3)nn2)cc(OC)c1
IC50 [15]: 3.1 µM | IC50 [16]: 3 µM | IC50 [13]: 3.9 µM | IC50 [17]: 75.2 µM

COc1ccc(-c2nc(/C=C/C(=O)c3ccc(N)cc3)cc3c2[nH]c2ccccc23)cc1OC
IC50 [1]: < 10 µM

COc1cc(-c2nc(/C=C/C(=O)c3ccc(O)cc3)cc3c2[nH]c2ccccc23)cc(OC)c1OC
IC50 [1]: < 10 µM

Cc1cc(=O)oc2cc(Oc3nc(-c4ccccc4)cn4c(-c5ccccc5)cnc34)ccc12
inhibition of growth at 10 µM [20]: 90% | inhibition of growth at 10 µM [21]: 93%

COc1ccc(C(=O)/C=C/c2cc3c([nH]c4ccccc43)c(-c3cc(OC)c(OC)c(OC)c3)n2)cc1
IC50 [1]: < 10 µM

O=C(/C=C/c1cc2c([nH]c3ccccc32)c(-c2ccc(F)cc2)n1)c1ccc(F)cc1
IC50 [1]: < 10 µM

CC[C@]1(O)C[C@H]2CN(CCc3c([nH]c4ccccc34)[C@@](C(=O)OC)(c3cc4c(cc3OC)N(C=O)[C@H]3[C@@](O)(C(=O)OC)[C@H](OC(C)=O)[C@]5(CC)C=CCN6CC[C@]43[C@@H]65)C2)C1 [VINCRISTINE]
IC50 [22]: 0.46 µg/mL (≈ 0.558 µM)
